Patent US8258134B2, “Pyridazinone glucokinase activators” (Hoffmann-La Roche Inc., priority 2008, dated 2012)

biological target: T1, Recombinant human liver GK1 (GST-GK) (Homo sapiens, UniProt P35557); test: Glucokinase in vitro assay (G6PDH-coupled NADH generation, OD340); type: biochemical; conditions: 30 uM test compound, 5 mM D-glucose
T1 construct: made in house; host or cells: E. coli
T1 sequence (P35557 1-466 isoform P35557-2): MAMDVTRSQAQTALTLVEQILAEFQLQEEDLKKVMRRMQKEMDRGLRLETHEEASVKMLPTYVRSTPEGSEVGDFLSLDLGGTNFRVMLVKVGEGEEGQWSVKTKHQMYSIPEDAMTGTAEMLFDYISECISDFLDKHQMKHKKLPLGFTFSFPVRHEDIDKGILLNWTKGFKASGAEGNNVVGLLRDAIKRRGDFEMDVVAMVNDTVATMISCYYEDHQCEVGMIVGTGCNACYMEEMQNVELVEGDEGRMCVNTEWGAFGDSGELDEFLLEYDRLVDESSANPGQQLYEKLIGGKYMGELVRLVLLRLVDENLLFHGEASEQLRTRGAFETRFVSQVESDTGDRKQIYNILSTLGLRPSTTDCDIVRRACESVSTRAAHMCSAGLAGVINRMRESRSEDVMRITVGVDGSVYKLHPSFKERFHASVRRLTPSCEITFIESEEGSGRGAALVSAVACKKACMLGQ
Method: Glucokinase In Vitro Assay Protocol: Glucokinase (GK) was assayed by coupling the production of glucose-6-phosphate to the generation of NADH with glucose-6-phosphate dehydrogenase (G6PDH, 0.75-1 k units/mg; Boehringer Mannheim, Indianapolis, Ind.) from Leuconostoc mesenteroides as the coupling enzyme (Scheme 2):
Recombinant human liver GK1 was expressed in E. coli as a glutathione S-transferase fusion protein (GST-GK) [Liang et al, 1995] and was purified by chromatography over a glutathione-Sepharose 4B affinity column using the procedure provided by the manufacturer (Amersham Pharmacia Biotech, Piscataway, N.J.).
The assay was conducted at 30° C. in a flat bottom 96-well tissue culture plate from Costar (Cambridge, Mass.) with a final incubation volume of 120 μL. The incubation reaction contained the following: 25 mM Hepes buffer (pH 7.1), 25 mM KCl, 5 mM D-glucose, 1 mM ATP, 1.8 mM NAD, 2 mM MgCl2, 1 μM sorbitol-6-phosphate, 1 mM dithiothreitol, test drug or 10% DMSO, ˜7 units/ml G6PDH, and GK (see below). All organic reagents were >98% pure and were from Boehringer Mannheim with the exceptions of D-glucose and Hepes which were from Sigma Chemical Co, St Louis, Mo. Test compounds were dissolved in DMSO and were added to the incubation reaction minus GST-GK in a volume of 12 μL to yield a final DMSO concentration of 10%. This mix was pre-incubated in the temperature controlled chamber of a SPECTRAmax 250 microplate spectrophotometer (Molecular Devices Corporation, Sunnyvale, Calif.) for 10 minutes to allow temperature equilibrium and then the reaction was started by the addition of 20 μL GST-GK.
After addition of enzyme, the increase in optical density (OD) at 340 nm was monitored spectrophotometrically to determine the rate of change (OD340 per min). The GK activity (OD340/min) in control wells (10% DMSO minus GK activators) was compared with the activity in wells containing test GK activators, and the concentration of activator that produced a 50% increase in the activity of GK, i.e., the SC1.5, was calculated. The table below provides the in vitro glucokinase activity for the compounds in the Examples: […]

In order of falling “fold activation @ 30 uM” value:
1. CC(C)(O)Cn1ccc(NC(=O)[C@@H](CC2CCCC2)n2ncc(Oc3ccccc3C3CCCC3)cc2=O)n1 [Example 22B, (R)-3-Cyclopentyl-2-[4-(2-cyclopentyl-phenoxy)-6-oxo-6H-pyridazin-1-yl]-N-[1-(2-hydroxy-2-methyl-propyl)-1H-pyrazol-3-yl]-propionamide]  1.22 fold
2. CC(C)(O)Cn1ccc(NC(=O)[C@@H](CC2CCCC2)n2ncc(Oc3ccccc3S(C)(=O)=O)cc2=O)n1 [Example 30B, (R)-3-Cyclopentyl-N-[1-(2-hydroxy-2-methyl-propyl)-1H-pyrazol-3-yl]-2-[4-(2-methanesulfonyl-phenoxy)-6-oxo-6H-pyridazin-1-yl]-propionamide]  1.16 fold

same assay, conditions: 5 mM D-glucose, 30° C., pH 7.1, 10% DMSO

In the case of `CC(C)(O)Cn1ccc(NC(=O)[C@@H](CC2CCCC2)n2ncc(Oc3ccccc3C3CCCC3)cc2=O)n1` [Example 22B, (R)-3-Cyclopentyl-2-[4-(2-cyclopentyl-phenoxy)-6-oxo-6H-pyridazin-1-yl]-N-[1-(2-hydroxy-2-methyl-propyl)-1H-pyrazol-3-yl]-propionamide], the “SC1.5 average (concentration of activator that produced a 50% increase in the activity of GK)” value is reported as greater than 30 µM.
In the case of `CC(C)(O)Cn1ccc(NC(=O)[C@@H](CC2CCCC2)n2ncc(Oc3ccccc3S(C)(=O)=O)cc2=O)n1` [Example 30B, (R)-3-Cyclopentyl-N-[1-(2-hydroxy-2-methyl-propyl)-1H-pyrazol-3-yl]-2-[4-(2-methanesulfonyl-phenoxy)-6-oxo-6H-pyridazin-1-yl]-propionamide], the “SC1.5 average (concentration of activator that produced a 50% increase in the activity of GK)” value is reported as greater than 30 µM.

In order of rising “SC1.5 average (concentration of activator that produced a 50% increase in the activity of GK)” value:
1. Cc1ccccc1Oc1cnn([C@@H](CC2CCCC2)C(=O)Nc2ccn(CC(C)(C)O)n2)c(=O)c1 [Example 24A, (S)-3-Cyclopentyl-N-[1-(2-hydroxy-2-methyl-propyl)-1H-pyrazol-3-yl]-2-(6-oxo-4-o-tolyloxy-6H-pyridazin-1-yl)-propionamide]  0.1 µM
2. CC(C)(O)Cn1ccc(NC(=O)[C@H](CC2CCCC2)n2ncc(Oc3ccccc3N3CCCC3)cc2=O)n1 [Example 26A, (S)-3-Cyclopentyl-N-[1-(2-hydroxy-2-methyl-propyl)-1H-pyrazol-3-yl]-2-[6-oxo-4-(2-pyrrolidin-1-yl-phenoxy)-6H-pyridazin-1-yl]-propionamide]  0.102 µM
3. CC(C)(O)Cn1ccc(NC(=O)[C@H](CC2CCCC2)n2ncc(Oc3ccccc3C#N)cc2=O)n1 [Example 29A, (S)-2-[4-(2-Cyano-phenoxy)-6-oxo-6H-pyridazin-1-yl]-3-cyclopentyl-N-[1-(2-hydroxy-2-methyl-propyl)-1H-pyrazol-3-yl]-propionamide]  0.159 µM
4. CC(C)(O)Cn1ccc(NC(=O)[C@H](CC2CCCC2)n2ncc(Oc3cccc(F)c3F)cc2=O)n1 [Example 31A, (S)-3-Cyclopentyl-2-[4-(2,3-difluoro-phenoxy)-6-oxo-6H-pyridazin-1-yl]-N-[1-(2-hydroxy-2-methyl-propyl)-1H-pyrazol-3-yl]-propionamide]  0.18 µM
5. CC(C)(O)Cn1ccc(NC(=O)C(CC2CCCC2)n2ncc(Oc3ccccc3N3CCCC3)cc2=O)n1 (stereo not shown) [Example 26, 3-Cyclopentyl-N-[1-(2-hydroxy-2-methyl-propyl)-1H-pyrazol-3-yl]-2-[6-oxo-4-(2-pyrrolidin-1-yl-phenoxy)-6H-pyridazin-1-yl]-propionamide]  0.196 µM
6. CC(C)(O)Cn1ccc(NC(=O)C(CC2CCCC2)n2ncc(Oc3cccc(F)c3F)cc2=O)n1 (stereo not shown) [Example 31, 3-Cyclopentyl-2-[4-(2,3-difluoro-phenoxy)-6-oxo-6H-pyridazin-1-yl]-N-[1-(2-hydroxy-2-methyl-propyl)-1H-pyrazol-3-yl]-propionamide]  0.209 µM
7. CC(C)(O)Cn1ccc(NC(=O)[C@H](CC2CCCC2)n2ncc(Oc3ccc(F)cc3F)cc2=O)n1 [Example 32A, (S)-3-Cyclopentyl-2-[4-(2,4-difluoro-phenoxy)-6-oxo-6H-pyridazin-1-yl]-N-[1-(2-hydroxy-2-methyl-propyl)-1H-pyrazol-3-yl]-propionamide]  0.502 µM
8. CC(C)(O)Cn1ccc(NC(=O)C(CC2CCCC2)n2ncc(Oc3ccc(F)cc3F)cc2=O)n1 (stereo not shown) [Example 32, 3-Cyclopentyl-2-[4-(2,4-difluoro-phenoxy)-6-oxo-6H-pyridazin-1-yl]-N-[1-(2-hydroxy-2-methyl-propyl)-1H-pyrazol-3-yl]-propionamide]  0.745 µM
9. CC(C)(O)Cn1ccc(NC(=O)C(CC2CCCC2)n2ncc(Oc3ccccc3-c3ccccc3)cc2=O)n1 (stereo not shown) [Example 23, 2-[4-(Biphenyl-2-yloxy)-6-oxo-6H-pyridazin-1-yl]-3-cyclopentyl-N-[1-(2-hydroxy-2-methyl-propyl)-1H-pyrazol-3-yl]-propionamide]  0.868 µM
10. CC(C)(O)Cn1ccc(NC(=O)[C@H](CC2CCCC2)n2ncc(Oc3ccccc3S(C)(=O)=O)cc2=O)n1 [Example 30A, (S)-3-Cyclopentyl-N-[1-(2-hydroxy-2-methyl-propyl)-1H-pyrazol-3-yl]-2-[4-(2-methanesulfonyl-phenoxy)-6-oxo-6H-pyridazin-1-yl]-propionamide]  1.566 µM
11. Cc1ncccc1Oc1cnn(C(CC2CCCC2)C(=O)Nc2ccn(CC(C)(C)O)n2)c(=O)c1 (stereo not shown) [Example 25, 3-Cyclopentyl-N-[1-(2-hydroxy-2-methyl-propyl)-1H-pyrazol-3-yl]-2-[4-(2-methyl-pyridin-3-yloxy)-6-oxo-6H-pyridazin-1-yl]-propionamide]  1.773 µM
12. CC(C)(O)Cn1ccc(NC(=O)C(CC2CCCC2)n2ncc(Oc3cccnc3)cc2=O)n1 (stereo not shown) [Example 28, 3-Cyclopentyl-N-[1-(2-hydroxy-2-methyl-propyl)-1H-pyrazol-3-yl]-2-[6-oxo-4-(pyridin-3-yloxy)-6H-pyridazin-1-yl]-propionamide]  1.925 µM
13. CC(C)(O)Cn1ccc(NC(=O)C(CC2CCCC2)n2ncc(Oc3ccccc3N3CCCCC3)cc2=O)n1 (stereo not shown) [Example 27, 3-Cyclopentyl-N-[1-(2-hydroxy-2-methyl-propyl)-1H-pyrazol-3-yl]-2-[6-oxo-4-(2-piperidin-1-yl-phenoxy)-6H-pyridazin-1-yl]-propionamide]  2.385 µM
14. CC(C)(O)Cn1ccc(NC(=O)C(CC2CCCC2)n2ncc(Oc3ccccc3S(C)(=O)=O)cc2=O)n1 (stereo not shown) [Example 30, 3-Cyclopentyl-N-[1-(2-hydroxy-2-methyl-propyl)-1H-pyrazol-3-yl]-2-[4-(2-methanesulfonyl-phenoxy)-6-oxo-6H-pyridazin-1-yl]-propionamide]  2.975 µM
15. Cc1ccccc1Oc1cnn([C@H](CC2CCCC2)C(=O)Nc2ccn(CC(C)(C)O)n2)c(=O)c1 [Example 24B, (R)-3-Cyclopentyl-N-[1-(2-hydroxy-2-methyl-propyl)-1H-pyrazol-3-yl]-2-(6-oxo-4-o-tolyloxy-6H-pyridazin-1-yl)-propionamide]  5.88 µM
16. CC(C)(O)Cn1ccc(NC(=O)[C@@H](CC2CCCC2)n2ncc(Oc3ccccc3C#N)cc2=O)n1 [Example 29B, (R)-2-[4-(2-Cyano-phenoxy)-6-oxo-6H-pyridazin-1-yl]-3-cyclopentyl-N-[1-(2-hydroxy-2-methyl-propyl)-1H-pyrazol-3-yl]-propionamide]  11.185 µM
17. CC(C)(O)Cn1ccc(NC(=O)[C@@H](CC2CCCC2)n2ncc(Oc3cccc(F)c3F)cc2=O)n1 [Example 31B, (R)-3-Cyclopentyl-2-[4-(2,3-difluoro-phenoxy)-6-oxo-6H-pyridazin-1-yl]-N-[1-(2-hydroxy-2-methyl-propyl)-1H-pyrazol-3-yl]-propionamide]  15.901 µM
18. CC(C)(O)Cn1ccc(NC(=O)[C@@H](CC2CCCC2)n2ncc(Oc3ccccc3N3CCCC3)cc2=O)n1 [Example 26B, (R)-3-Cyclopentyl-N-[1-(2-hydroxy-2-methyl-propyl)-1H-pyrazol-3-yl]-2-[6-oxo-4-(2-pyrrolidin-1-yl-phenoxy)-6H-pyridazin-1-yl]-propionamide]  26.027 µM
